Results from US20250388568A1, “NLRP3 INHIBITORS” (Kodiak Sciences Inc., priority 2022, published 2025).

system: IL-1β release in U937 cells after NLRP3 activation; assay: IC50 determination of IL-1β release inhibition in U937 cells; assay type: cell-based; conditions: Homo sapiens, U-937; PMA-differentiated U937 cells, LPS priming 5 h, nigericin; average of at least three experiments; read-out: IL-1β IC50 (nM) U937 cells
Method: Example 79: IC50 Determination of IL-1β Release Inhibition in U937 Cells The compounds of the present disclosure were tested for their ability to inhibit the IL-1β release in the U937 cells after NLRP3 activation. U937 cells (U-97 CRL 1593.2) were thawed following ATCC's initial culture procedure. […] The growth medium was composed of RPMI1640 medium (Quality Biological 112-040-101), 10% serum (Corning 35-076-CV), Pen/Strep (GIBCO 15140-122), 10 mM Hepes (Quality Biological 118-089-721), 2 mM Glutamax (GIBCO 35050-061), and 100 μg/mL normocin (Invivogen ant-nr)-Differentiating media was prepared by adding Phorbol 12-myristate 13-acetate (PMA) (AdipoGen AG-CN2-0010-M005) to growth medium. A cell suspension was prepared with differentiating media at 500k cells/ml. With an electronic pipet, 200 ul of cell suspension was added to each well (96w white plate Corning 3903) leaving columns 1 and 2 empty. Plates were left in the biosafety cabinet for 15 min and then placed in incubator for 90 hours. Priming media was prepared with assay medium consisting of RPMI 1640 medium, 10 mM Hepes, 2 mM Glutamax and Pen/Strep plus 1 μg/mL LPS (Invivogen tlrl-3pelps). Differentiating media was manually removed and 80 ul of priming media was added to each well with an electronic pipet. The plates were placed in the incubator for 5 hours. […] DMSO). An hour prior to the end of LPS incubation, a separate 96 deep well plate, Plate B, was prepared with 400 μL of assay media per well, then […] of the stock DMSO solution from Plate A was added to each corresponding well. Plate B was covered to avoid media evaporation. In a 50 mL tube, a solution of nigericin in assay media at 50 uM/mL concentration was prepared. To a new 96 deep well plate, Plate C, 200 μL of this nigericin containing media was dispensed to each well and 1 μL of the test compounds from Plate B to each corresponding well was added. Plate C was covered to avoid media evaporation. After 5 hours of priming, all the media from the LPS treated U937 cells was removed manually. To this plate of primed cells, 80 μL/well test compounds from Plate B (assay media+compound) was added in duplicate columns (5 compounds tested per plate). The plate was placed in an incubator for 30 min. […] The plate was placed back in the incubator for 1 hour. At the end of 1 hour, the supernatant from this test plate was transferred to a new 96 well V bottom polypropylene plate which was frozen immediately at -80° C. The plate was transferred to -20° C. the next day and awaited further determination of cytokine IL-Ip level. The release of IL-1β into the cell media was determined by MSD® Multi-Spot Assay System (V-Plex, IL-1B kit, […]-4). Following the manufacture's protocol and using the Alternate Protocol 3, Dilute-In-Plate protocol specifically, the level of IL-IP in the above collected supernatant plate was measured as electrochemiluminescent signals. Using MSD DISCOVERY WORKBENCH® analysis software, the signals were converted to the concentration of IL-1β in each well. The IC50 values of the compounds were calculated using the Graph Pad Prism software based on the IL-1β concentration determined. The detection range of IL-1β using MSD kit was approximately […] (based on various lots of standards purchased from MSD).

| Compound | IC50 |
| --- | --- |
| CN(Cc1cc(S(=O)(=O)NC(=O)Nc2c3c(c(F)c4c2CCC4)CCC3)nn1C)CC1(CO)CCOCC1 [Example 64, N-((8-fluoro-1,2,3,5,6,7-hexahydro-S-indacen-4-yl)carbamoyl)-5-((((4-(hydroxymethyl)tetrahydro-2H-pyran-4-yl)methyl)(methyl)amino)methyl)-1-methyl-1H-pyrazole-3-sulfonamide] | 50 to 500 nM |
| N=S(=O)(NC(=O)Nc1c2c(cc3c1CCC3)CCC2)c1cc(C(=O)N2CC3(CC(O)C3)C2)co1 (stereo not shown) [Example 3, N-((1,2,3,5,6,7-hexahydro-s-indacen-4-yl)carbamoyl)-4-(6-hydroxy-2-azaspiro[3.3]heptane-2-carbonyl)furan-2-sulfonimidamide] | 50 to 500 nM |
| CC(C)n1nc(S(=N)(=O)NC(=O)Nc2c3c(cc4c2CCC4)CCC3)cc1CN (stereo not shown) [Example 77, 5-(aminomethyl)-N-((1,2,3,5,6,7-hexahydro-s-indacen-4-yl)carbamoyl)-1-isopropyl-1H-pyrazole-3-sulfonimidamide] | 50 to 500 nM |
| CN(C(=O)c1coc(S(=N)(=O)NC(=O)Nc2c3c(cc4c2CCC4)CCC3)c1)C1CNC1 (stereo not shown) [Example 17, N-(azetidin-3-yl)-5-(N-((1,2,3,5,6,7-hexahydro-s-indacen-4-yl)carbamoyl)sulfamidimidoyl)-N-methylfuran-3-carboxamide] | 50 to 500 nM |
| O=C(Nc1c2c(cc3c1CCC3)CCC2)NS(=O)(=O)c1cc(CN2CC(O)C2)co1 [Example 32, N-((1,2,3,5,6,7-hexahydro-s-indacen-4-yl)carbamoyl)-4-((3-hydroxyazetidin-1-yl)methyl)furan-2-sulfonamide] | 50 to 500 nM |
| N=S(=O)(NC(=O)Nc1c2c(cc3c1CCC3)CCC2)c1cc(CN2CC3(CC(O)C3)C2)co1 (stereo not shown) [Example 2, N-((1,2,3,5,6,7-hexahydro-s-indacen-4-yl)carbamoyl)-4-((6-hydroxy-2-azaspiro[3.3]heptan-2-yl)methyl)furan-2-sulfonimidamide] | 50 to 500 nM |
| Cc1oc(S(=O)(=O)NC(=O)Nc2c3c(c(Cl)c4c2CCC4)CCC3)cc1CN1CC[C@H](O)C1 [Example 49, (S)—N-((8-chloro-1,2,3,5,6,7-hexahydro-s-indacen-4-yl)carbamoyl)-4-((3-hydroxypyrrolidin-1-yl)methyl)-5-methylfuran-2-sulfonamide] | 5 to 50 nM |
| N=S(=O)(NC(=O)Nc1c2c(cc3c1CCC3)CCC2)c1cc(CO[C@H]2C[C@H](N)C2)co1 (stereo partly shown) [Example 18, 4-(((1r,3r)-3-aminocyclobutoxy)methyl)-N-((1,2,3,5,6,7-hexahydro-s-indacen-4-yl)carbamoyl)furan-2-sulfonimidamide] | 5 to 50 nM |
| Cc1cc(S(=O)(=O)NC(=O)Nc2c3c(c(F)c4c2CCC4)CCC3)oc1CN1C[C@@H](F)[C@@H](O)C1 [Example 55, N-((8-fluoro-1,2,3,5,6,7-hexahydro-s-indacen-4-yl)carbamoyl)-5-(((3R,4S)-3-fluoro-4-hydroxypyrrolidin-1-yl)methyl)-4-methylfuran-2-sulfonamide] | 5 to 50 nM |
| CC(C)n1nc(S(=O)(=O)NC(=O)Nc2c3c(c(Cl)c4c2CCC4)CCC3)cc1CN(C)CC1(O)CCC1 [Example 69, N-((8-chloro-1,2,3,5,6,7-hexahydro-s-indacen-4-yl)carbamoyl)-5-((((1-hydroxycyclobutyl)methyl)(methyl)amino)methyl)-1-isopropyl-1H-pyrazole-3-sulfonamide] | 5 to 50 nM |

Now from value to compound:

| IC50 | Compound |
| --- | --- |
| 5 to 50 nM | Cc1oc(S(=O)(=O)NC(=O)Nc2c3c(cc4c2CCC4)CCC3)cc1CN(C)CC1(CO)CCC1 [Example 34, N-((1,2,3,5,6,7-hexahydro-s-indacen-4-yl)carbamoyl)-4-((((1-(hydroxymethyl)cyclobutyl)methyl)(methyl)amino)methyl)-5-methylfuran-2-sulfonamide] |
| 5 to 50 nM | Cc1oc(S(=O)(=O)NC(=O)Nc2c3c(c(F)c4c2CCC4)CCC3)cc1CN1C[C@@H](F)[C@@H](O)C1 [Example 40, N-((8-fluoro-1,2,3,5,6,7-hexahydro-s-indacen-4-yl)carbamoyl)-4-(((3R,4S)-3-fluoro-4-hydroxypyrrolidin-1-yl)methyl)-5-methylfuran-2-sulfonamide] |
| < 5 nM | CC(C)n1nc(S(=O)(=O)NC(=O)Nc2c3c(c(F)c4c2CCC4)CCC3)cc1CN(C)CC1(O)CCC1 [Example 66, N-((8-fluoro-1,2,3,5,6,7-hexahydro-s-indacen-4-yl)carbamoyl)-5-((((1-hydroxycyclobutyl)methyl)(methyl)amino)methyl)-1-isopropyl-1H-pyrazole-3-sulfonamide] |
| 5 to 50 nM | CC(C)(O)c1cc(S(=O)(=O)NC(=O)Nc2c3c(cc4c2CCC4)CCC3)oc1CN1CCNCC1 [Example 70, N-((1,2,3,5,6,7-hexahydro-s-indacen-4-yl)carbamoyl)-4-(2-hydroxypropan-2-yl)-5-(piperazin-1-ylmethyl)furan-2-sulfonamide] |
| 5 to 50 nM | CC(C)n1nc(S(=O)(=O)NC(=O)Nc2c3c(c(F)c4c2CCC4)CCC3)cc1CN1CC[C@H](O)C1 [Example 67, (S)—N-((8-fluoro-1,2,3,5,6,7-hexahydro-s-indacen-4-yl)carbamoyl)-5-((3-hydroxypyrrolidin-1-yl)methyl)-1-isopropyl-1H-pyrazole-3-sulfonamide] |
| 5 to 50 nM | Cc1cc(S(=O)(=O)NC(=O)Nc2c3c(c(F)c4c2CCC4)CCC3)oc1CN1CC[C@@H](O)C1 [Example 52, (R)-N-((8-fluoro-1,2,3,5,6,7-hexahydro-s-indacen-4-yl)carbamoyl)-5-((3-hydroxypyrrolidin-1-yl)methyl)-4-methylfuran-2-sulfonamide] |
| 5 to 50 nM | Cc1oc(S(=O)(=O)NC(=O)Nc2c3c(c(F)c4c2CCC4)CCC3)cc1CN(C)CC1(CO)CCOCC1 [Example 46, N-((8-fluoro-1,2,3,5,6,7-hexahydro-s-indacen-4-yl)carbamoyl)-4-((((4-(hydroxymethyl)tetrahydro-2H-pyran-4-yl)methyl)(methyl)amino)methyl)-5-methylfuran-2-sulfonamide] |
| 5 to 50 nM | CN(Cc1cc(S(=O)(=O)NC(=O)Nc2c3c(c(F)c4c2CCC4)CCC3)nn1C)CC1(CO)CCC1 [Example 65, N-((8-fluoro-1,2,3,5,6,7-hexahydro-s-indacen-4-yl)carbamoyl)-5-((((1-(hydroxymethyl)cyclobutyl)methyl)(methyl)amino)methyl)-1-methyl-1H-pyrazole-3-sulfonamide] |
| 5 to 50 nM | Cc1cc(S(=O)(=O)NC(=O)Nc2c3c(c(F)c4c2CCC4)CCC3)oc1CN1C[C@@H](O)[C@@H](F)C1 [Example 53, N-((8-fluoro-1,2,3,5,6,7-hexahydro-s-indacen-4-yl)carbamoyl)-5-(((38,4R)-3-fluoro-4-hydroxypyrrolidin-1-yl)methyl)-4-methylfuran-2-sulfonamide] |
| 5 to 50 nM | Cc1cc(S(=O)(=O)NC(=O)Nc2c3c(c(F)c4c2CCC4)CCC3)oc1CN1C[C@H](O)[C@@H](F)C1 [Example 56, N-((8-fluoro-1,2,3,5,6,7-hexahydro-s-indacen-4-yl)carbamoyl)-5-(((3S,4S)-3-fluoro-4-hydroxypyrrolidin-1-yl)methyl)-4-methylfuran-2-sulfonamide] |
| 5 to 50 nM | CN(Cc1cc(S(=O)(=O)NC(=O)Nc2c3c(c(Cl)c4c2CCC4)CCC3)nn1C)CC1(O)CCC1 [Example 68, N-((8-chloro-1,2,3,5,6,7-hexahydro-s-indacen-4-yl)carbamoyl)-5-((((1-hydroxycyclobutyl)methyl)(methyl)amino)methyl)-1-methyl-1H-pyrazole-3-sulfonamide] |
| 5 to 50 nM | CN(C(=O)c1coc(S(=N)(=O)NC(=O)Nc2c3c(cc4c2CCC4)CCC3)c1)[C@H]1C[C@H](O)C1 (stereo partly shown) [Example 15, 5-(N-((1,2,3,5,6,7-hexahydro-s-indacen-4-yl)carbamoyl)sulfamidimidoyl)-N-((1r,3r)-3-hydroxycyclobutyl)-N-methylfuran-3-carboxamide] |
